Reference: the NIST ThermoML archive (doi:10.1016/j.jct.2013.05.011)
Numbers after ± are expanded uncertainties.

Key:
[1] = activity coefficient (dimensionless); of the first substance listed, at infinite dilution; xn = mol fraction of the nth substance listed; settings: 101 kPa, Liquid, Chromatography, x1 = 0
[2] = 288.15 K; 101.33 kPa; Liquid; Vibrating tube method
[3] = refractive index (Na D-line) (dimensionless); settings: 293.15 K; 101.33 kPa; Liquid; Standard Abbe refractometry

Row | Compound | activity coefficient ([1]; 333.2 K) | activity coefficient ([1]; 348.2 K) | activity coefficient ([1]; 363.2 K) | mass density [2] [kg/m3] | refractive index [3]
1 | C=CCCCCC [1-heptene] + OCCOCCO | 72.3 ± 5 | 66.6 ± 4.6 | 60.5 ± 4.1 | – | –
2 | C=CCCCCC [1-heptene] + OCCOCCOCCO | 34.4 ± 2.4 | 30.6 ± 2.1 | 27.5 ± 1.9 | – | –
3 | C#CCCCCC [1-heptyne] + OCCOCCO | 20.3 ± 1.4 | 20.8 ± 1.4 | 19.3 ± 1.3 | – | –
4 | C#CCCCCC [1-heptyne] + OCCOCCOCCO | 10.2 ± 0.7 | 9.04 ± 0.62 | 8.99 ± 0.61 | – | –
5 | C#CCCCC [1-hexyne] + OCCOCCO | 14.1 ± 0.96 | 14.6 ± 1 | 13.8 ± 0.94 | – | –
6 | C#CCCCC [1-hexyne] + OCCOCCOCCO | 7.01 ± 0.48 | 7.03 ± 0.48 | 6.69 ± 0.46 | – | –
7 | C#CCCCCCC [1-octyne] + OCCOCCO | 29.9 ± 2 | 29.7 ± 2 | 27 ± 1.9 | – | –
8 | C#CCCCCCC [1-octyne] + OCCOCCOCCO | 14.4 ± 0.98 | 12.8 ± 0.87 | 12.2 ± 0.83 | – | –
9 | C=CCCC [1-pentene] + OCCOCCO | 35.3 ± 4.4 | 32.9 ± 4.1 | 27.6 ± 3.4 | – | –
10 | C=CCCC [1-pentene] + OCCOCCOCCO | 17.5 ± 2.2 | 16.1 ± 2 | 14.8 ± 1.8 | – | –
11 | C#CCCC [1-pentyne] + OCCOCCO | 9.93 ± 1.2 | 10.5 ± 1.3 | 10.2 ± 1.3 | – | –
12 | C#CCCC [1-pentyne] + OCCOCCOCCO | 5.07 ± 0.63 | 5.11 ± 0.64 | 5.01 ± 0.62 | – | –
13 | c1ccccc1 [benzene] + OCCOCCO | 7.33 ± 0.5 | 7.21 ± 0.49 | 7.05 ± 0.48 | – | –
14 | c1ccccc1 [benzene] + OCCOCCOCCO | 3.91 ± 0.27 | 3.86 ± 0.26 | 3.36 ± 0.23 | – | –
15 | C1CCCCCC1 [cycloheptane] + OCCOCCO | 52.4 ± 3.6 | 47.4 ± 3.2 | 42.1 ± 2.9 | – | –
16 | C1CCCCCC1 [cycloheptane] + OCCOCCOCCO | 29.6 ± 2 | 22.3 ± 1.5 | 19.8 ± 1.4 | – | –
17 | C1CCCCC1 [cyclohexane] + OCCOCCO | 42.7 ± 2.9 | 39.2 ± 2.7 | 34.9 ± 2.4 | – | –
18 | C1CCCCC1 [cyclohexane] + OCCOCCOCCO | 21.1 ± 1.4 | 18.6 ± 1.3 | 16.8 ± 1.1 | – | –
19 | C1CCCCCCC1 [cyclooctane] + OCCOCCO | 70.7 ± 4.8 | 61.3 ± 4.2 | 52.2 ± 3.6 | – | –
20 | C1CCCCCCC1 [cyclooctane] + OCCOCCOCCO | 35.3 ± 2.4 | 27.2 ± 1.9 | 23.9 ± 1.6 | – | –
21 | C1CCCC1 [cyclopentane] + OCCOCCO | 30.9 ± 2.1 | 27.6 ± 1.9 | 25.9 ± 1.8 | – | –
22 | C1CCCC1 [cyclopentane] + OCCOCCOCCO | 15.2 ± 1 | 14 ± 0.95 | 12.7 ± 0.87 | – | –
23 | OCCOCCO [diethylene glycol] | – | – | – | 1120.05 ± 0.28 | 1.4471 ± 0.0004
24 | CCO [ethanol] + OCCOCCO | 1.47 ± 0.1 | 1.46 ± 0.1 | 1.46 ± 0.1 | – | –
25 | CCO [ethanol] + OCCOCCOCCO | 1.18 ± 0.08 | 1.15 ± 0.07 | 1.12 ± 0.07 | – | –

Row | Compound | activity coefficient ([1]; 333.2 K) | activity coefficient ([1]; 348.2 K) | activity coefficient ([1]; 363.2 K) | mass density [2] [kg/m3] | refractive index [3]
26 | CCc1ccccc1 [ethylbenzene] + OCCOCCO | 16.8 ± 1.1 | 16.1 ± 1.1 | 15.2 ± 1 | – | –
27 | CCc1ccccc1 [ethylbenzene] + OCCOCCOCCO | 8.63 ± 0.59 | 8.21 ± 0.56 | 7.86 ± 0.54 | – | –
28 | CCCCCCC [heptane] + OCCOCCO | 131 ± 9 | 122 ± 8.4 | 95.4 ± 6.5 | – | –
29 | CCCCCCC [heptane] + OCCOCCOCCO | 62.3 ± 4.3 | 52.3 ± 3.6 | 43.7 ± 3 | – | –
30 | C=CCCCC [hex-1-ene] + OCCOCCO | 50.7 ± 3.5 | 47.3 ± 3.2 | 38.9 ± 2.7 | – | –
31 | C=CCCCC [hex-1-ene] + OCCOCCOCCO | 24.6 ± 1.7 | 22.7 ± 1.6 | 20.4 ± 1.4 | – | –
32 | CCCCCC [hexane] + OCCOCCO | 95.7 ± 6.6 | 84 ± 5.8 | 82.4 ± 5.6 | – | –
33 | CCCCCC [hexane] + OCCOCCOCCO | 45.8 ± 3.1 | 40.3 ± 2.8 | 35.1 ± 2.4 | – | –
34 | CO [methanol] + OCCOCCO | 0.988 ± 0.062 | 1.01 ± 0.06 | 1.02 ± 0.06 | – | –
35 | CO [methanol] + OCCOCCOCCO | 0.788 ± 0.051 | 0.787 ± 0.051 | – | – | –
36 | CCCCCCCCC [nonane] + OCCOCCO | 264 ± 18 | 230 ± 16 | 193 ± 13 | – | –
37 | CCCCCCCCC [nonane] + OCCOCCOCCO | 137 ± 9.4 | 98.9 ± 6.8 | 83.1 ± 5.7 | – | –
38 | C=CCCCCCC [oct-1-ene] + OCCOCCO | 101 ± 6.9 | 93.5 ± 6.4 | 82.6 ± 5.7 | – | –
39 | C=CCCCCCC [oct-1-ene] + OCCOCCOCCO | 55.9 ± 3.8 | 41.8 ± 2.9 | 36.8 ± 2.5 | – | –
40 | CCCCCCCC [octane] + OCCOCCO | 188 ± 13 | 168 ± 12 | 146 ± 10 | – | –
41 | CCCCCCCC [octane] + OCCOCCOCCO | 103 ± 7.1 | 74 ± 5.1 | 62.9 ± 4.3 | – | –
42 | CCCCC [pentane] + OCCOCCO | 70.2 ± 8.7 | 53.8 ± 6.7 | 54.2 ± 6.7 | – | –
43 | CCCCC [pentane] + OCCOCCOCCO | 33.7 ± 4.2 | 30.8 ± 3.8 | 23.2 ± 2.9 | – | –
44 | CCCO [propan-1-ol] + OCCOCCO | 1.8 ± 0.12 | 1.77 ± 0.12 | 1.74 ± 0.12 | – | –
45 | CCCO [propan-1-ol] + OCCOCCOCCO | 1.38 ± 0.09 | 1.34 ± 0.09 | 1.31 ± 0.09 | – | –
46 | CC(C)O [propan-2-ol] + OCCOCCO | 1.79 ± 0.12 | 1.77 ± 0.12 | 1.74 ± 0.12 | – | –
47 | CC(C)O [propan-2-ol] + OCCOCCOCCO | 1.45 ± 0.1 | 1.4 ± 0.09 | 1.38 ± 0.09 | – | –
48 | Cc1ccccc1 [toluene] + OCCOCCO | 11.2 ± 0.77 | 10.9 ± 0.75 | 10.5 ± 0.72 | – | –
49 | Cc1ccccc1 [toluene] + OCCOCCOCCO | 5.88 ± 0.4 | 5.73 ± 0.39 | 5.55 ± 0.38 | – | –
50 | OCCOCCOCCO [triethylene glycol] | – | – | – | 1127.37 ± 0.15 | 1.4563 ± 0.0004
